According to article PMC10112232, “Comparison of Toxicities among Different Bumped Kinase Inhibitor Analogs for Treatment of Cryptosporidiosis” (Antimicrobial Agents and Chemotherapy, 2023):
Where two headings read alike, the source gives them in different places.

Legend:
[1] = Pharmacokinetics in mice (plasma, brain, GI tissues) by LC/MS-MS; format: in vivo, mouse; conditions: for Kp: mouse, brain, read-out: brain penetration (brain tissue to plasma area-under-the-curve)
Procedure: For evaluation of its suitability for in vivo dosing, BKI-1841 was also tested in mice for plasma exposure after a single dose (Fig. 2). […] A dose of 25 mg/kg BKI-1841 was used to evaluate brain penetration over 4 h using the same method (Fig. 2).
(§1) Methods for synthesis of BKIs ([17], [23]), efficacy against Nluc expressing C. parvum in infected adult IFN-γ KO mice ([6], [9]), in vivo mouse GI tract tissue exposure by LC/MS-MS analysis ([18], [28]), PK analysis of mouse plasma and brain tissue BKI concentrations by LC/MS-MS analysis ([29]), in vivo rat and dog cardiotoxicity screen ([30]), efficacy against IOWA-II strain C. parvum in infected neonatal calves ([13]), efficacy against C. hominis in infected piglets ([12]), in vitro inhibition of C. parvum CDPK1 (CpCDPK1) and human tyrosine kinase SRC (HsSRC) activity ([31]), in vitro inhibition of hERG ([32]), Nluc expressing C. parvum in vitro growth inhibition in infected HCT-8 cells ([6]), in vitro cytotoxicity in CRL-8155 and HepG2 cells ([29]), and mouse locomotor activity box ([33], [34]) have all been previously described. Analytes were measured by LC/MS-MS on an Acquity ultra performance liquid chromatography (UPLC) system in tandem with a Xevo TQ-S mass spectrometer (Waters, Milford, MA, USA).

C. parvum = test: Efficacy in neonatal calves infected with C. parvum; format: in vivo
Procedure: (§2) There were also improvements in the treated calves in both fecal volume and consistency, urine output, weight gain and daily clinical scores compared to control calves (Fig. S3). […] Fecal volume, fecal consistency, and clinical scores were improved for all treatment groups compared to controls, but these improvements were delayed for the 1 mg/kg group.
Total oocyst excretion determined by RT-PCR concentration and total by fecal weight shed per day. (A) Oocyst excretion per day after treatment with BKI-1770. […] (C) Oocyst excretion per day after treatment with BKI-1841. (D) Cumulative total oocyst excretion for days 3 through 10 after treatment with BKI-1841. […] BKI-1841 BID treatments were administered on days 2 through 4 and QD treatments were administered on days 2 through 5. […] QD = once daily, BID = twice daily.
(§3) BKI-1841 was dosed at 5, 2, and 1 mg/kg BID for 3 days and 2 mg/kg QD for 4 days (Fig. 5, Fig. S4). […] Urine output was consistent for all groups, including controls, and fecal volume and consistency were improved for all groups over controls (Fig. S4). […] This occurred to some degree with all dosing regimens, developing with the fewest doses at 5 mg/kg BID. With the lowest dose of 1 mg/kg BID, the onset of dropped pasterns began after the third dose and continued until self-resolving 2 days after dosing concluded. All signs of dropped pasterns were gone by the end of the experiment on day 10 postinfection.
as §1

[2] = Mouse locomotor activity box; format: in vivo; conditions: mice, 150 mg/kg QD for 5 days; for distance traveled / stereotypic horizontal activity / vertical rearing activity: vs controls
Procedure: BKIs –1770, -1841, and -1708 were tested in the mouse locomotor activity box to screen for possible neurological issues (Fig. S7). All three BKIs were dosed at 150 mg/kg QD for 5 days.
as §1

[3] = Multidose mouse toxicity, tibial epiphyseal growth plate; format: in vivo; conditions: for gross signs of toxicity / width of the tibia epiphyseal growth plate vs vehicle controls: 3 week old mice, oral 150 mg/kg QD for 7 days; for width of the tibia epiphyseal growth plate vs vehicle controls: n = 3
Procedure: The recurring presence of toxicity in calves manifesting as dropped pasterns, as well as the observations of bone toxicity in rats, led to the exploration of possible bone toxicity screening in mice to allow for screening prior to dosing in larger animals. To test for effects to the growth plate in developing bones, 3 week old mice were dosed for 7 days QD and euthanized 24 h after the final dose. The right and left tibia were dissected from each mouse and stained with AgNO3 to visualize the growth plate and measurements across the widths compared to vehicle-only treated controls. […] The remaining two mice for this treatment were immediately euthanized and their tibias extracted early on day 4.
Mouse toxicity testing and evaluation of the tibial epiphyseal plate have been previously described ([18], [38]) and were performed with some modifications. Briefly, 3 week old BALB/c mice (n = 3) were dosed orally once daily for 7 days. Mice were euthanized along with vehicle treated controls by cardiac puncture for collection of blood for analysis. Necropsy, obtaining blood for serum chemistries, histology of organs (brain, heart, lungs, spleen, liver, stomach, small intestine, large intestine and kidney), and removal of tibias were performed within 24 h of the final dose. Examination of organ histology included routine H&E and Oil-Red O (lipid)-stained organs from the treated mice and a set of untreated matched controls. Pathological examination was performed by a board certified pathologist who was blinded to the treatment and control group identities. Tibias were removed and immediately placed in dH2O for a minimum of 1 h. Using a fresh number 11 scalpel blade, a quick sagittal cut was made across the femoral condyle opposite the fibula, and a second cut was made across the second femoral condyle separating the fibula and tibia. The tibias were then immersed in acetone for 1 h to dehydrate. Dehydrated tibias were washed in dH2O for 2 min, then soaked in 1.5% AgNO3 for 1 min in a container protected from light. Tibias were then rinsed in dH2O for 2 min and exposed to strong light for 10 sec. Stained tibias were stored in 70% ethanol for >10 min before examining the growth plates at ×40 magnification using an Amscope stereo microscope with a mounted camera. Photos were taken using the Amscope image capture software. A calibration slide was used to establish a μm to pixel ratio of 1:1.184. Using the Measurement Tool, 10 measurements were taken across each epiphyseal plate by orienting the cursor at right angles from the growth plate borders by two different researchers (one set unblinded; one set blinded) and average width was assigned to each tibia from each animal.

[4] = Plasma concentrations and clinical toxicity signs in treated neonatal calves; format: in vivo, calf; conditions: for Cmax: bovine, plasma
Procedure: as §2, §3

[5] = test system: Nluc expressing C. parvum; test: Efficacy in IFN-γ KO mice infected with Nluc expressing C. parvum; format: in vivo; conditions: for difference in parasite excretion vs untreated control: n = 3
Procedure: BKI-1841 was also tested at doses of 60, 30, 15, and 5 mg/kg once daily (QD) for 5 days, resulting in a minimum efficacious dose of 30 mg/kg that cleared parasite excretion to background levels by day 13 postinfection (Fig. 4).
FIG 4 Efficacy of BKI-1841 in interferon-γ knockout mice infected with nanoluciferase expressing C. parvum. Treatments were separated into two separate experiments for BKI-1841. Untreated control groups for each experiment are grouped with their associated treatment in the figure keys. Dotted line denotes the limit of detection. Treatments were dosed on days 6 through 10 postinfection. […] QD = once daily.
as §1

CCOc1ccc2cc(-c3nn(C(C)(C)CCO)c(N)c3C(N)=O)ccc2c1 [BKI-1770]
time to depletion in plasma to submicromolar concentrations ([1]; mice, after oral dosing): 1 to 2 h
ileum tissue concentration ([1]; mice, single 30 mg/kg oral dose, through 12 h): > 1 µM
Kp ([1]; mice, single 30 mg/kg oral dose): 0.1
total oocysts excreted (C. parvum; 5 mg/kg BID for 5 days (n = 5), days 3 to 10 postinfection, control 1.62E10): 2.58E9 oocysts
minimal efficacious dose (C. parvum; BID): 3 mg/kg
total oocyst excretion per day vs controls (C. parvum; all dosed groups (5, 3, 2, 1 mg/kg BID for 5 days)): significant differences
overall effect on locomotor activity [2]: depression in movement
distance traveled [2]: significant (P < 0.05) decrease in distance traveled from 20 to 60 min
stereotypic horizontal activity [2]: increased horizontal activity from 0 to 40 min
vertical rearing activity [2]: decreased vertical activity throughout the study
gross signs of toxicity [3]: no gross signs of toxicity
width of the tibia epiphyseal growth plate vs vehicle controls [3]: significant (P < 0.05) increases
hyperflexion of the limbs (dropped pasterns) ([4]; 5 mg/kg BID for 5 days): observed in two of the 5 mg/kg calves
bloody diarrhea ([4]; 5 mg/kg BID, one calf): some bloody diarrhea
Cmax ([4]; 3 mg/kg BID, at 4 h post dose 1, read-out: plasma observed Cmax): 3.4 ± 0.06 µM
Cmax ([4]; 5 mg/kg BID, at 4 h post dose 5, read-out: plasma observed maximum concentration (Cmax)): 10.3 ± 5.4 µM

CCOc1ccc2cc(-c3nn(C4CCOCC4)c(N)c3C(N)=O)ccc2n1 [BKI-1841]
plasma exposure ([1]; for more than 6 h after a single 25 mg/kg dose in mice): > 1 µM
signs of toxicity ([1]; mice, single 25 mg/kg dose): no signs of toxicity
Kp ([1]; mice, single 25 mg/kg oral dose, over 4 h): 0.27
difference in parasite excretion vs untreated control ([5]; 5 mg/kg QD days 6-10 postinfection): no significant difference
difference in parasite excretion vs untreated control ([5]; 15 mg/kg QD days 6-10 postinfection): no significant difference
difference in parasite excretion vs untreated control ([5]; 30 mg/kg QD days 6-10 postinfection): Significant differences
difference in parasite excretion vs untreated control ([5]; 60 mg/kg QD days 6-10 postinfection): Significant differences
minimum efficacious dose ([5]; IFN-γ KO mice, once daily (QD) for 5 days, cleared parasite excretion to background by day 13 postinfection): 30 mg/kg
total oocyst excretion reduction (C. parvum; 1 mg/kg BID for 3 days): little reduction
total oocyst excretion per day vs controls (C. parvum; 1 mg/kg group): no significant difference
total oocyst excretion reduction (C. parvum; 5 mg/kg BID for 3 days and 2 mg/kg BID given for 3 or 4 days): 2 to 4 log
total oocyst excretion per day vs controls (C. parvum; 5 mg/kg and both 2 mg/kg groups): significant differences
overall effect on locomotor activity [2]: depression in movement
distance traveled [2]: significant (P < 0.05) decrease
stereotypic horizontal activity [2]: significant (P < 0.05) decrease
vertical rearing activity [2]: significant (P < 0.05) decrease
gross signs of toxicity [3]: no gross signs of toxicity
width of the tibia epiphyseal growth plate vs vehicle controls [3]: did not show significant increases
blood chemistry and histology vs control animals ([3]; mice (data not shown)): no abnormalities or indications of toxicity
predose plasma concentration ([4]; 1 mg/kg BID, last day of treatment): 1.3 ± 0.1 µM
ataxia ([4]; 5 mg/kg BID, during the 3 days of dosing): signs of ataxia
hyperflexion of the limbs (dropped pasterns) ([4]; all dosing regimens (5, 2, 1 mg/kg BID 3 days; 2 mg/kg QD 4 days)): all calves dosed with BKI-1841 showed signs of hyperflexion of the limbs seen as dropped pasterns
safety index ([4]; dropped pasterns at lowest dose tested (1 mg/kg BID)): < 1
